system: male CD1 mice; assay: In vivo predictive sedation-hypnosis test (traveled distance); details: Mus musculus, ip, 0.5 h, 0.98 μmol/kg intraperitoneal, traveled distance over 30 min versus control, read-out: % inhib motor activity
Method: b) In Vivo Determination of Predictive Sedative-hypnotic Action
The in vivo effects of these compounds were assessed by a predictive sedation-hypnosis test in mice (D. J. Sanger et al., Eur. J. Pharmacol., 313, 35-42, 1996; and G. Griebel et al., Psychopharmacology, 146, 205-213, 1999).
Groups of 5-8 male CD1 mice, weighing 22-26 g at the time of test, were used. […] Compounds were suspended in 0.25% agar with one drop of Tween in a volume of 10 mL/kg. Control animals were given the vehicle alone. Using a Smart System (Panlab, S. L., Spain) the traveled distance in cm is recorded for each mouse at 5-minutes intervals during a period of 30 minutes after dosing. The inhibition percentage of traveled distance of treated animals versus control animals (the first 5 minutes were discarded) was calculated.

Compound | inhibition in vivo at 0.98 µmol/kg
CCCCN(CCCC)C(=O)Cc1c(-c2ccc(Cl)cc2)nc2ccc(OCC)nn12 [Example 24, N,N-Dibutyl-2-[2-(4-chloro-phenyl)-6-ethoxy-imidazo[1,2-b]pyridazin-3-yl]-acetamide] | 3.65%

same assay, conditions: Mus musculus, ip, 0.5 h, 98.0 μmol/kg intraperitoneal, traveled distance over 30 min versus control, read-out: % inhib motor activity

Compound | inhibition in vivo at 98 µmol/kg
CCCCN(CCCC)C(=O)Cc1c(-c2ccc(Cl)cc2)nc2ccc(OCC)nn12 [Example 24, N,N-Dibutyl-2-[2-(4-chloro-phenyl)-6-ethoxy-imidazo[1,2-b]pyridazin-3-yl]-acetamide] | 86.5%
CCCCN(CCCC)C(=O)Cc1c(-c2ccc(F)cc2)nc2ccc(C)nn12 [Example 40, N,N-Dibutyl-2-[2-(4-fluoro-phenyl)-6-methyl-imidazo[1,2-b]pyridazin-3-yl]-acetamide] | 91.8%
CCCCN(CCCC)C(=O)Cc1c(-c2ccc(F)cc2)nc2ccc(OC)nn12 [Example 42, N,N-Dibutyl-2-[2-(4-fluoro-phenyl)-6-methoxy-imidazo[1,2-b]pyridazin-3-yl]-acetamide] | 91%
CCCCN(CCCC)C(=O)Cc1c(-c2ccc(OC)cc2)nc2ccc(C)nn12 [Example 72, N,N-Dibutyl-2-[2-(4-methoxy-phenyl)-6-methyl-imidazo[1,2-b]pyridazin-3-yl]-acetamide] | 93.3%
CCCCN(CCCC)C(=O)Cc1c(-c2ccc(OC)cc2)nc2ccc(OC)nn12 [Example 77, N,N-Dibutyl-2-[6-methoxy-2-(4-methoxy-phenyl)-imidazo[1,2-b]pyridazin-3-yl]-acetamide] | 89.3%
CCCN(CCOC(C)=O)C(=O)Cc1c(-c2ccc(C)cc2)nc2ccc(C)nn12 [Example 80, Acetic acid 2-{[2-(6-methyl-2-p-tolyl-imidazo[1,2-b]pyridazin-3-yl)-acetyl]-propyl-amino}-ethyl ester] | 94.4%
Cc1ccc(-c2nc3ccc(C)nn3c2CC(=O)N2CC(C)CC(C)C2)cc1 (stereo not shown) [Example 81, 1-(3,5-Dimethyl-piperidin-1-yl)-2-(6-methyl-2-p-tolyl-imidazo[1,2-b]pyridazin-3-yl)-ethanone] | 90.8%
Cc1ccc2nc(-c3ccc(Br)cc3)c(CC(=O)NN)n2n1 [Example 100, [2-(4-Bromo-phenyl)-6-methyl-imidazo[1,2-b]pyridazin-3-yl]-acetic acid hydrazide] | 93.7%
Cc1ccc2nc(-c3ccc(Cl)cc3)c(CC(=O)NN)n2n1 [Example 102, [2-(4-Chloro-phenyl)-6-methyl-imidazo[1,2-b]pyridazin-3-yl]-acetic acid hydrazide] | 85.5%

From patent publication US8993562B2, “Imidazo[1,2-b]pyridazines, processes, uses, intermediates and compositions” (Ferrer Internacional, S.A., priority 2006, dated 2015)
